Laboratory results from article PMC11755785 (Langmuir, 2025).

Tests used:
[1] = Molar absorption coefficients of 270 and 360 nm peaks (UV–vis calibrated by NMR molar ratio); assay type: physicochemical
Source text: From NMR titration, the diketo and enol forms were expected to be 15.3 and 84.7%, respectively. Therefore, the abscissae of the regression lines were condensed to the species contents, leading to the molar absorption coefficients (i.e., absorbance gradients to the molarity) for the diketo and keto-enol forms being approximately 8.1 × 10^7 and 4.3 × 10^7 L/mol. Figure S13 confirms that the molar absorption coefficients for the diketo and keto-enol forms in the isochoric acetonitrile/water solvent were approximately 13.8 × 10^7 and 3.6 × 10^7 L/mol, respectively. The obtained parameters allowed the absorbance to be converted into AVB molarity.

[2] = Flask-shaking 1-octanol/water partition, log D–pH profile fitted to Avdeef's diagram; assay type: physicochemical; conditions: modified Britton–Robinson buffers pH 5–11.5, 298 K
Experimental: The aqueous-phase solvents were prepared by mixing 25 mM KH2PO4 and 25 mM Na2HPO4 solutions in 25 mM Pi buffer. The pH was adjusted before fixing the prescribed concentrations of the acid components of the buffer. The JP1 and JP2 buffer solutions were 10 mM sodium citrate/HCl buffer (pH 1.2) and Pi buffer (pH 6.8), which were prepared in compliance with the description for solution media for the dissolution test in Japanese Pharmacopeia (JP)-implemented international harmonization. The modified Britton–Robinson universal pH buffer comprised 28.6 mM KH2PO4, 28.6 mM HBO2, and 28.6 mM NaCl, titrated with 1 M NaOH (here, modified means elimination of barbital to cancel its interaction with organic solutes). For the partition equilibrium examination, the aqueous saturated 1-octanol phase comprised 1-octanol, which was flooded with a modified Britton–Robinson buffer adjusted to the appropriate pH in advance.
The hydrophobic drug dissolved in the aqueous saturated 1-octanol phase was mixed with an isochoric solution of the modified Britton–Robinson buffer (pH 5–11.5), saturated with 1-octanol. Thereafter, the samples in the screw-capped vials were machine-shaken at 298 K in a thermostatic chamber for 60 min and subsequently kept stationary for 60 min; the procedure corresponds to the conventional “flask-shaking” method.[41]−[43] After settling, the pH in the aqueous phase was confirmed using pH indicator strips (MColoHast pH 0–6.0, MQuant pH 7.5–14, and MQuant pH 0–14, Merck, Germany) to be that of the adjusted pH value. Aliquots (10 μL) from the 1-octanol and the aqueous layers were injected into the HPLC instrument. The 1-octanol/water partition coefficients, log P (equivalent to log KOW), and acid dissociation constants, pKa, were optimized using curve fitting, approximated by eq 1 [drawing 1] 1 which is Avdeef’s diagram[44] derived from the Henderson–Hasselbalch expression for the equilibrium between the protonated and deprotonated species. The curve-fitting procedures used the solver module of Microsoft Excel 2016 with the implemented GRG nonlinear option. Approximate curves corresponding to these optimized parameters were drawn, and the pKa and log P values for AVB, OXB, and CUR were obtained.

In the case of “p-tert-butyl-p-methoxydibenzoylmethane [AVB]”, the “molar absorption coefficient, diketo form (270 nm)” value ([1]; isochoric acetonitrile/water) is reported as “approximately 13.8 × 10^7 L/mol”, the “molar absorption coefficient, keto-enol form (360 nm)” value ([1]; isochoric acetonitrile/water) is reported as ~3.6e+07 L/mol and the “molar absorption coefficient, keto-enol form (360 nm)” value ([1]; methanol/H2O = 7:3) is reported as ~4.3e+07 L/mol. The “acid dissociation constant, pKa” value ([2]; from log D–pH curve fitting) was 8.59 and the “1-octanol/water partition coefficient, log P” value ([2]; neutral form, curve fitting) was 4.27.
